Assay results from patent US10287305B2, “Substituted piperidine compound and use thereof” (Takeda Pharmaceutical Company Limited, priority 2016, dated 2019).

Target: human orexin type 2 receptor (hOX2R) (Homo sapiens (Human), UniProt O43614)
Assay: Measurement of orexin type 2 receptor agonist activity (Experimental Example 2-1, FLIPR TETRA, intracellular Ca2+);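 on Emax: Buffer-only well is 0% and 10 nM human orexin B is 100%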
Type: cell-based
Conditions: CHO dhfr- cells expressing hOX2R; for EC50: agonist activity, 10 nM human orexin B = 100%; for Emax at 30 µM: value at 30 uM concentration, orexin B as full agonist = 100%
From the text: To obtain a cell clone stably expressing human orexin type 2 receptor, human orexin type 2 receptor cDNA was inserted into pcDNA3.1(+) plasmid vector (Invitrogen), and a plasmid DNA for expression of human orexin type 2 receptor (pcDNA3.1(+)/hOX2R) was cloned. The plasmid DNA was introduced into CHO-dhfr cell by an electroporation method, and human orexin type 2 receptor expressing clone cells were obtained by limiting dilution method by using G418 drug resistance as a selection marker.
Chinese hamster ovary (CHO) dhfr-cells forcibly expressing human orexin type 2 receptor (hOX2R) were seeded in each well of Black clear bottom plate (384 wells) (Becton, Dickinson and Company) by 10,000 cells, and cultured for 16 hr in an MEM-alpha (Nikken-Bio Co., Ltd.) medium containing 100 U/ml penicillin, 100 μg/ml streptomycin, […] G418 (all above Invitrogen), and 10% fetal calf serum (Thermo), under the conditions of 37° C., 5% CO2. […] A test compound was dissolved in dimethyl sulfoxide to 10 mM, and then diluted with assay buffer 2 (20 mM HEPES, Hanks' balanced salt solution (Invitrogen), 0.1% bovine serum albumin). For the reaction, a test compound solution (10 μL) was added using Fluorescent Imaging Plate Reader TETRA (FLIPR TETRA; manufactured by Molecular Devices), a fluorescence value (excitation wavelength 488 nm, measurement wavelength 570 nm) of each well was measured every one second for 1 min, and the agonist activity was determined using the area of the fluorescence value as an indicator of intracellular Ca^2+ concentration.

human orexin type 2 receptor (hOX2R), sequence (O43614 whole entry): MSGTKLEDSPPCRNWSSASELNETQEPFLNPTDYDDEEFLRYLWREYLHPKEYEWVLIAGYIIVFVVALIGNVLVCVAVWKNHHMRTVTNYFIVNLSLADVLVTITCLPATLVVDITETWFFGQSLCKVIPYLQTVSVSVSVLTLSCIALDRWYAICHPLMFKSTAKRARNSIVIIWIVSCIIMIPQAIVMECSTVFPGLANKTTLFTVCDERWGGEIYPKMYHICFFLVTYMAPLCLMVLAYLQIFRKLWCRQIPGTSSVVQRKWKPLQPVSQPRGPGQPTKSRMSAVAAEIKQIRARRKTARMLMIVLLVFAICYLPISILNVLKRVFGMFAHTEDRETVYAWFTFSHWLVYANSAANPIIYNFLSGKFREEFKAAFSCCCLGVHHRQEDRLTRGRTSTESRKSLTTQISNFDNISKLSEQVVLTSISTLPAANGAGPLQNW

Row | EC50 [nM] | Emax at 30 µM [%] | Structure (SMILES)
1 | 93 | 99 | CCCC(=O)N1CCC[C@H](NS(C)(=O)=O)[C@@H]1CO[C@H]1CC[C@@H](C(C)C)CC1 (relative stereo) [Example 35, N-(cis-1-butyryl-2-(((cis-4-isopropylcyclohexyl)oxy)methyl)piperidin-3-yl)methanesulfonamide]
2 |  | 74 | CC(C)[C@H]1CC[C@@H](OC[C@H]2[C@@H](NS(C)(=O)=O)CCCN2S(C)(=O)=O)CC1 (relative stereo) [Example 36, N-(cis-2-(((cis-4-isopropylcyclohexyl)oxy)methyl)-1-(methylsulfonyl)piperidin-3-yl)methanesulfonamide]
3 | 880 | 97 | CCS(=O)(=O)N[C@H]1CCCN(C(=O)Nc2ccccc2)[C@H]1CO[C@H]1CC[C@@H](C)CC1 (relative stereo) [Example 37, cis-3-((ethylsulfonyl)amino)-2-(((cis-4-methylcyclohexyl)oxy)methyl)-N-phenylpiperidine-1-carboxamide]
4 | 940 | 93 | CC(C)[C@H]1CC[C@@H](OC[C@H]2[C@@H](NS(C)(=O)=O)CCCN2C(=O)N2CCCC2)CC1 (relative stereo) [Example 39, N-(cis-2-(((cis-4-isopropylcyclohexyl)oxy)methyl)-1-(pyrrolidin-1-ylcarbonyl)piperidin-3-yl)methanesulfonamide]
5 | 720 | 91 | CC(C)[C@H]1CC[C@@H](OC[C@H]2[C@@H](NS(C)(=O)=O)CCCN2C(=O)N(C)C)CC1 (relative stereo) [Example 40, cis-2-(((cis-4-isopropylcyclohexyl)oxy)methyl)-N,N-dimethyl-3-((methylsulfonyl)amino)piperidine-1-carboxamide]
6 |  | 97 | CCOC(=O)N1CCC[C@H](NS(C)(=O)=O)[C@@H]1CO[C@H]1CC[C@@H](C(C)C)CC1 (relative stereo) [Example 42, ethyl cis-2-(((cis-4-isopropylcyclohexyl)oxy)methyl)-3-((methylsulfonyl)amino)piperidine-1-carboxylate]
7 | 1100 | 93 | CC(C)[C@H]1CC[C@@H](OC[C@H]2[C@@H](NS(C)(=O)=O)CCCN2C(=O)Oc2ccccc2)CC1 (relative stereo) [Example 43, phenyl cis-2-(((cis-4-isopropylcyclohexyl)oxy)methyl)-3-((methylsulfonyl)amino)piperidine-1-carboxylate]
8 | 1300 | 96 | CC(C)[C@H]1CC[C@@H](OC[C@H]2[C@@H](NS(C)(=O)=O)CCCN2C(=O)COc2ccccc2)CC1 (relative stereo) [Example 44, N-(cis-2-(((cis-4-isopropylcyclohexyl)oxy)methyl)-1-(phenoxyacetyl)piperidin-3-yl)methanesulfonamide]
9 | 330 | 100 | COCC(=O)N1CCC[C@H](NS(C)(=O)=O)[C@@H]1CO[C@H]1CC[C@@H](C(C)C)CC1 (relative stereo) [Example 45, N-(cis-2-(((cis-4-isopropylcyclohexyl)oxy)methyl)-1-(methoxyacetyl)piperidin-3-yl)methanesulfonamide]
10 |  | 101 | CC(=O)OCC(=O)N1CCC[C@H](NS(C)(=O)=O)[C@@H]1CO[C@H]1CC[C@@H](C(C)C)CC1 (relative stereo) [Example 47, 2-(cis-2-(((cis-4-isopropylcyclohexyl)oxy)methyl)-3-((methylsulfonyl)amino)piperidin-1-yl)-2-oxoethyl acetate]
11 | 980 | 96 | CC(C)[C@H]1CC[C@@H](OC[C@H]2[C@@H](NS(C)(=O)=O)CCCN2C(=O)C(C)(C)C)CC1 (relative stereo) [Example 53, N-(cis-1-(2,2-dimethylpropanoyl)-2-(((cis-4-isopropylcyclohexyl)oxy)methyl)piperidin-3-yl)methanesulfonamide]
12 | 4100 | 88 | CC(C)[C@H]1CC[C@@H](OC[C@H]2[C@@H](NS(C)(=O)=O)CCCN2C(=O)CCc2ccccc2)CC1 (relative stereo) [Example 54, N-(cis-2-(((cis-4-isopropylcyclohexyl)oxy)methyl)-1-(3-phenylpropanoyl)piperidin-3-yl)methanesulfonamide]
13 | 140 | 97 | COC(=O)CCC(=O)N1CCC[C@H](NS(C)(=O)=O)[C@@H]1CO[C@H]1CC[C@@H](C(C)C)CC1 (relative stereo) [Example 55, methyl 4-(cis-2-(((cis-4-isopropylcyclohexyl)oxy)methyl)-3-((methylsulfonyl)amino)piperidin-1-yl)-4-oxobutanoate]
14 | 140 | 101 | CC(C)[C@H]1CC[C@@H](OC[C@H]2[C@@H](NS(C)(=O)=O)CCCN2C(=O)C2CCOCC2)CC1 (relative stereo) [Example 60, N-(cis-2-(((cis-4-isopropylcyclohexyl)oxy)methyl)-1-(tetrahydro-2H-pyran-4-ylcarbonyl)piperidin-3-yl)methanesulfonamide]
15 | 2300 | 93 | CC(C)[C@H]1CC[C@@H](OC[C@H]2[C@@H](NS(C)(=O)=O)CCCN2S(=O)(=O)C2CC2)CC1 (relative stereo) [Example 62, N-(cis-1-(cyclopropylsulfonyl)-2-(((cis-4-isopropylcyclohexyl)oxy)methyl)piperidin-3-yl)methanesulfonamide]
16 | 1300 | 95 | Cc1nc(S(=O)(=O)N2CCC[C@H](NS(C)(=O)=O)[C@@H]2CO[C@H]2CC[C@@H](C(C)C)CC2)cn1C (relative stereo) [Example 65, N-(cis-1-((1,2-dimethyl-1H-imidazol-4-yl)sulfonyl)-2-(((cis-4-isopropylcyclohexyl)oxy)methyl)piperidin-3-yl)methanesulfonamide]
17 | 3800 | 87 | CC(C)[C@H]1CC[C@@H](OC[C@H]2[C@@H](NS(C)(=O)=O)CCCN2S(=O)(=O)c2cccnc2)CC1 (relative stereo) [Example 66, N-(cis-2-(((cis-4-isopropylcyclohexyl)oxy)methyl)-1-(pyridin-3-ylsulfonyl)piperidin-3-yl)methanesulfonamide]
18 |  | 93 | CC(C)[C@H]1CC[C@@H](OC[C@H]2[C@@H](NS(C)(=O)=O)CCCN2S(=O)(=O)c2cnn(C)c2)CC1 (relative stereo) [Example 67, N-(cis-2-(((cis-4-isopropylcyclohexyl)oxy)methyl)-1-((1-methyl-1H-pyrazol-4-yl)sulfonyl)piperidin-3-yl)methanesulfonamide]
19 | 89 | 96 | CC(C)[C@H]1CC[C@@H](OC[C@H]2[C@@H](NS(C)(=O)=O)CCCN2C(=O)CCO)CC1 (relative stereo) [Example 72, N-(cis-1-(3-hydroxypropanoyl)-2-(((cis-4-isopropylcyclohexyl)oxy)methyl)piperidin-3-yl)methanesulfonamide]
20 | 560 | 92 | CC(C)[C@H]1CC[C@@H](OC[C@H]2[C@@H](NS(C)(=O)=O)CCCN2C(=O)CC(C)(C)O)CC1 (relative stereo) [Example 73, N-(cis-1-(3-hydroxy-3-methylbutanoyl)-2-(((cis-4-isopropylcyclohexyl)oxy)methyl)piperidin-3-yl)methanesulfonamide]
21 | 750 | 89 | CC(C)[C@H]1CC[C@@H](OC[C@H]2[C@@H](NS(C)(=O)=O)CCCN2C(=O)CCS(C)(=O)=O)CC1 (relative stereo) [Example 74, N-(cis-2-(((cis-4-isopropylcyclohexyl)oxy)methyl)-1-(3-(methylsulfonyl)-propanoyl)piperidin-3-yl)methanesulfonamide]
22 |  | 88 | CC(=O)CCC(=O)N1CCC[C@H](NS(C)(=O)=O)[C@@H]1CO[C@H]1CC[C@@H](C(C)C)CC1 (relative stereo) [Example 75, N-(cis-2-(((cis-4-isopropylcyclohexyl)oxy)methyl)-1-(4-oxopentanoyl)piperidin-3-yl)methanesulfonamide]
23 | 300 | 103 | CC(=O)N1CCC[C@H](NS(=O)(=O)C(C)C)[C@@H]1CO[C@H]1CC[C@@H](C(C)C)CC1 (relative stereo) [Example 76, N-(cis-1-acetyl-2-(((cis-4-isopropylcyclohexyl)oxy)methyl)piperidin-3-yl)propane-2-sulfonamide]
24 | 1000 | 91 | CCCS(=O)(=O)N[C@H]1CCCN(C(C)=O)[C@H]1CO[C@H]1CC[C@@H](C(C)C)CC1 (relative stereo) [Example 77, N-(cis-1-acetyl-2-(((cis-4-isopropylcyclohexyl)oxy)methyl)piperidin-3-yl)propane-1-sulfonamide]
25 | 63 | 91 | CC(=O)N1CCC[C@H](NS(=O)(=O)N(C)C)[C@@H]1CO[C@H]1CC[C@@H](C(C)C)CC1 (relative stereo) [Example 78, N′-(cis-1-acetyl-2-(((cis-4-isopropylcyclohexyl)oxy)methyl)piperidin-3-yl)-N,N-dimethylsulfuric diamide]
